This is an account of results in PMC6487966, “Streptococcal dTDP‐L‐rhamnose biosynthesis enzymes: functional characterization and lead compound identification” (Molecular Microbiology, 2019).

Holding throughout (test): bio-layer interferometry, dilution series on biotinylated recombinant enzyme
Holding throughout (assay type): binding
In general terms: BLI is a label-free optical method that tracks binding on a fibre tip over time.

The target in assay [1] is T1, RmlB (dTDP‐glucose‐4,6‐dehydratase) (Streptococcus pyogenes, UniProt Q9A045).
T1 construct: gene cpsFQ
T1 sequence (Q9A045 entry or part of it): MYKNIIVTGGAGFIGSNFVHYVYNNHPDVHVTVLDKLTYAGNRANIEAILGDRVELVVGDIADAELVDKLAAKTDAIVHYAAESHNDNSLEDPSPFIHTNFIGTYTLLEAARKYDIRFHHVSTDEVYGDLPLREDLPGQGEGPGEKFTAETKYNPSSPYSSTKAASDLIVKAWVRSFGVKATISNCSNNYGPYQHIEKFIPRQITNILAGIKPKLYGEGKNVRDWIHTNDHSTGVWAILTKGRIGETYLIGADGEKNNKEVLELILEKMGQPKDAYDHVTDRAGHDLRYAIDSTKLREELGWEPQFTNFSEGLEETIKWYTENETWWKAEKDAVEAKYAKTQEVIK

Assay [2] deals with GacA (RmlD, dTDP‐4‐dehydrorhamnose reductase) (Streptococcus pyogenes, UniProt Q9A0G6).
Sequence of GacA (RmlD, dTDP‐4‐dehydrorhamnose reductase) (Q9A0G6 entry or part of it): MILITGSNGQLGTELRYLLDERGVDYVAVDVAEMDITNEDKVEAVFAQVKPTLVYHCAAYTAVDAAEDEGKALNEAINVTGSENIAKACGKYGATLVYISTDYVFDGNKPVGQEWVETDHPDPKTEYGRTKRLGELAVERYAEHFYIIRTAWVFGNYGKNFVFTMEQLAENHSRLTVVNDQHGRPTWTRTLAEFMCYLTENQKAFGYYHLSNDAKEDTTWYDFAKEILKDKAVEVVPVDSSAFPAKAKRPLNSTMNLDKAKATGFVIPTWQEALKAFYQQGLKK
Assay [3] addresses T2, RmlC (dTDP‐4‐keto‐6‐deoxyglucose‐3,5‐epimerase) (Streptococcus pyogenes, UniProt Q5XCG7).
T2 construct: gene rfbC

T2 sequence (Q5XCG7 whole entry): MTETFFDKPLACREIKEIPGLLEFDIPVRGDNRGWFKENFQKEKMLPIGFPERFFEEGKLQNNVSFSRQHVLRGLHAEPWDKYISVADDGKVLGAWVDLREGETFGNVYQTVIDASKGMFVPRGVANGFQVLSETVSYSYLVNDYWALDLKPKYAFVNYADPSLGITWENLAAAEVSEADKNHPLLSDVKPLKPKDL

By Kd is commonly meant the equilibrium constant for the complex coming apart. With `O=C(O)c1ccc(-c2ccc(Cl)cc2)o1` [Ri03, 5‐(4‐chlorophenyl)‐2‐furoic acid], the Kd in assay [1] is 200 µM; in assay [2], 300 µM; in assay [3], around 3000 µM.
